ChEMBL document CHEMBL5724914, “Linking interpersonal differences in gut microbiota composition and drug biotransformation activity” (2024)

How the values were obtained:
[1] = (§1) The drug is tested on Z-006 corresponding to mouse gut metagenome with ENA study accession number: PRJEB37062 and ENA sample accession number: ERS12561806 for biotransformation under anaerobic condition. The drug concentrations were measured over 9 timepoints collected between 0 and 24 hours of incubation by liquid-chromatography-coupled mass spectrometry (LC–MS); settings: 2 µM
[2] = as §1, with “Z-001” for “Z-006”, “ERS12561801” for “ERS12561806”; settings: 2 µM
[3] = as §1, with “WLS-370” for “Z-006”, “human” for “mouse”, “ERS12561793” for “ERS12561806”; settings: 2 µM
[4] = as §1, with “WLS-038” for “Z-006”, “human” for “mouse”, “ERS12561745” for “ERS12561806”; settings: 2 µM
[5] = as §1, with “WLS-027” for “Z-006”, “human” for “mouse”, “ERS12561744” for “ERS12561806”; settings: 2 µM
[6] = as §1, with “WLS-010” for “Z-006”, “human” for “mouse”, “ERS12561743” for “ERS12561806”; settings: 2 µM
[7] = as §1, with “WLS-006” for “Z-006”, “human” for “mouse”, “ERS12561741” for “ERS12561806”; settings: 2 µM
[8] = human gut metagenome, 24 h, 2 µM
[9] = human gut metagenome, 24 h, 2 µM; remark: listed apart in the source
[10] = human gut metagenome, 24 h, 2 µM; remark: listed apart in the source
[11] = human gut metagenome, 24 h, 2 µM; remark: listed apart in the source
[12] = human gut metagenome, 24 h, 2 µM; remark: listed apart in the source
[13] = human gut metagenome, 24 h, 2 µM; remark: listed apart in the source
[14] = human gut metagenome, 24 h, 2 µM; remark: listed apart in the source
[15] = human gut metagenome, 24 h, 2 µM; remark: listed apart in the source
[16] = human gut metagenome, 24 h, 2 µM; remark: listed apart in the source
[17] = human gut metagenome, 24 h, 2 µM; remark: listed apart in the source
[18] = as §1, with “Z-026” for “Z-006”, “to” for “to mouse gut”, “ERS12561825” for “ERS12561806”; settings: 2 µM
[19] = as §1, with “Z-025” for “Z-006”, “rabbit” for “mouse”, “ERS12561824” for “ERS12561806”; settings: 2 µM
[20] = as §1, with “Z-021” for “Z-006”, “to” for “to mouse gut”, “ERS12561820” for “ERS12561806”; settings: 2 µM
Note: call rule not given here.

Row | SMILES | Bacterial Biotransformation [1] | Bacterial Biotransformation [2] | Bacterial Biotransformation [3] | Bacterial Biotransformation [4] | Bacterial Biotransformation [5] | Bacterial Biotransformation [6] | Bacterial Biotransformation [7] | Bacterial Biotransformation [8] | Bacterial Biotransformation [9] | Bacterial Biotransformation [10] | Bacterial Biotransformation [11] | Bacterial Biotransformation [12] | Bacterial Biotransformation [13] | Bacterial Biotransformation [14] | Bacterial Biotransformation [15] | Bacterial Biotransformation [16] | Bacterial Biotransformation [17] | Bacterial Biotransformation [18] | Bacterial Biotransformation [19] | Bacterial Biotransformation [20]
1 | CCC1(c2ccc(N)cc2)CCC(=O)NC1=O (stereo not drawn) [AMINOGLUTETHIMIDE] | Compound NOT metabolized | Compound NOT metabolized | Compound NOT metabolized | Compound NOT metabolized | Compound NOT metabolized | Compound NOT metabolized | Compound NOT metabolized | Compound NOT metabolized | Compound NOT metabolized | Compound NOT metabolized | Compound NOT metabolized | Compound NOT metabolized | Compound NOT metabolized | Compound NOT metabolized | Compound NOT metabolized | Compound NOT metabolized | Compound NOT metabolized | – | – | –
2 | CC(=O)O[C@]1(C(C)=O)CC[C@H]2[C@@H]3C=C(Cl)C4=CC(=O)[C@@H]5C[C@@H]5[C@]4(C)[C@H]3CC[C@@]21C [CYPROTERONE ACETATE] | – | Compound metabolized | Compound metabolized | Compound metabolized | Compound metabolized | Compound metabolized | Compound metabolized | Compound metabolized | Compound metabolized | Compound metabolized | Compound metabolized | Compound metabolized | Compound metabolized | Compound metabolized | Compound metabolized | Compound metabolized | Compound metabolized | – | – | –
3 | CN1C[C@H](C(=O)N[C@]2(C)O[C@@]3(O)[C@@H]4CCCN4C(=O)[C@H](Cc4ccccc4)N3C2=O)C=C2c3cccc4[nH]cc(c34)C[C@H]21.CN1C[C@H](C(=O)N[C@]2(C)O[C@@]3(O)[C@@H]4CCCN4C(=O)[C@H](Cc4ccccc4)N3C2=O)C=C2c3cccc4[nH]cc(c34)C[C@H]21.O=C(O)C(O)C(O)C(=O)O [ERGOTAMINE TARTRATE] | Compound NOT metabolized | – | Compound metabolized | Compound NOT metabolized | Compound metabolized | Compound metabolized | Compound metabolized | Compound metabolized | Compound metabolized | Compound metabolized | Compound metabolized | Compound metabolized | – | – | Compound metabolized | Compound metabolized | Compound NOT metabolized | – | – | –
4 | O=C1[C@H](CC[C@H](O)c2ccc(F)cc2)[C@@H](c2ccc(O)cc2)N1c1ccc(F)cc1 [EZETIMIBE] | Compound NOT metabolized | Compound NOT metabolized | Compound metabolized | Compound NOT metabolized | Compound NOT metabolized | Compound metabolized | Compound metabolized | Compound NOT metabolized | Compound metabolized | Compound NOT metabolized | Compound NOT metabolized | Compound metabolized | Compound metabolized | Compound NOT metabolized | Compound NOT metabolized | Compound NOT metabolized | Compound NOT metabolized | Compound NOT metabolized | Compound NOT metabolized | –
5 | COC(=O)C1=C(C)NC(C)=C(C(=O)OC(C)C)C1c1cccc2nonc12 (stereo not drawn) [ISRADIPINE] | – | Compound NOT metabolized | Compound metabolized | Compound NOT metabolized | Compound metabolized | Compound metabolized | Compound NOT metabolized | Compound metabolized | Compound metabolized | Compound NOT metabolized | Compound metabolized | Compound metabolized | Compound metabolized | Compound metabolized | Compound metabolized | Compound metabolized | Compound NOT metabolized | – | – | –
6 | COc1ccccc1N1CCN(CC(O)COc2cccc3ccccc23)CC1 (stereo not drawn) [NAFTOPIDIL] | Compound NOT metabolized | Compound NOT metabolized | Compound NOT metabolized | Compound NOT metabolized | Compound NOT metabolized | Compound NOT metabolized | Compound NOT metabolized | Compound NOT metabolized | Compound NOT metabolized | Compound NOT metabolized | Compound NOT metabolized | Compound NOT metabolized | Compound NOT metabolized | Compound NOT metabolized | Compound NOT metabolized | Compound NOT metabolized | Compound NOT metabolized | – | – | Compound metabolized
7 | CN(C(=O)CN(CCO)CC(=O)N(C)C(C)(C)Cc1ccccc1)C(C)(C)Cc1ccccc1 [OXETHAZAINE] | – | – | Compound metabolized | Compound metabolized | Compound metabolized | Compound metabolized | Compound metabolized | Compound metabolized | Compound metabolized | Compound NOT metabolized | Compound metabolized | Compound metabolized | Compound metabolized | Compound metabolized | Compound metabolized | Compound metabolized | Compound NOT metabolized | – | – | –
8 | Cc1nc2n(c(=O)c1CCN1CCC(c3noc4cc(F)ccc34)CC1)CCCC2O (stereo not drawn) [PALIPERIDONE] | – | Compound NOT metabolized | Compound metabolized | Compound metabolized | Compound metabolized | Compound metabolized | Compound metabolized | Compound metabolized | Compound metabolized | Compound metabolized | Compound metabolized | Compound metabolized | Compound NOT metabolized | Compound metabolized | Compound metabolized | Compound metabolized | Compound metabolized | Compound NOT metabolized | – | Compound metabolized
9 | CN1CCN(CC/C=C2/c3ccccc3Sc3ccc(S(=O)(=O)N(C)C)cc32)CC1 [THIOTHIXENE] | – | – | Compound metabolized | Compound metabolized | Compound metabolized | Compound metabolized | Compound metabolized | Compound metabolized | Compound metabolized | Compound metabolized | Compound metabolized | Compound metabolized | Compound metabolized | Compound metabolized | Compound metabolized | Compound NOT metabolized | Compound NOT metabolized | – | – | –
10 | CS(=O)(=O)O.O.O.O.O=C1Cc2cc(CCN3CCN(c4nsc5ccccc45)CC3)c(Cl)cc2N1 [ZIPRASIDONE MESYLATE] | – | – | Compound NOT metabolized | Compound metabolized | Compound metabolized | Compound NOT metabolized | Compound metabolized | Compound metabolized | Compound NOT metabolized | Compound NOT metabolized | Compound metabolized | Compound metabolized | Compound metabolized | Compound metabolized | Compound metabolized | Compound metabolized | Compound NOT metabolized | – | – | –
